Key:
[1] = biological target: T1, HER2 (Homo sapiens, UniProt P04626); assay: Plasma membrane-associated HER2 levels by quantitative FACS (qFACS) after tucatinib treatment; assay type: cell-based; conditions: BT-474, SK-BR-3, HCC-1419, UACC-893; tucatinib 30 nM or 100 nM; 24 hours and 48 hours
T1 construct: endogenous in cells; host or cells: SK-BR-3
Protocol: (§1) To assess changes to HER2 protein levels upon treatment with tucatinib, HER2-amplified breast cancer cell lines were analyzed by Western blot and quantitative FACS (qFACS). HER2 protein levels were determined for BT-474, SK-BR-3, HCC-1419, and UACC-893 after treatment with tucatinib at either 30 nM or 100 nM doses, for the duration of 24 hours and 48 hours.
Cell surface levels of HER2 were determined for BT-474, SK-BR-3, HCC-1419, and UACC-893 after treatment with tucatinib at either 30 nM or 100 nM doses, for the duration of 24 hours and 48 hours. Plasma membrane-associated levels of HER2 were determined by quantitative FACS (qFACS) analysis after exclusion of dead cells. In all four cell lines tested, HER2 levels at the cell surface increased after treatment with tucatinib.

[2] = tested on: CTG-0708 model; assay: T-DM1-resistant HER2+ patient-derived (PDX) breast cancer model CTG-0708; assay type: in vivo, mice
Protocol: (§2) For these experiments, two T-DM1-resistant breast cancer tumor models were selected which scored 3+ by IHC and had metastasized to the lung. Tumor fragments were implanted subcutaneously into the flanks of immunocompromised mice. […] Each study arm was comprised of eight animals each. Tumor volume was monitored until the designated endpoint of the study. P-values were determined by t-test analysis comparing the tucatinib/T-DM1 combination to the closest single agent arm (ref brackets).

[3] = tested on: CTG-0807 model; assay: T-DM1-resistant HER2+ patient-derived (PDX) breast cancer model CTG-0807; assay type: in vivo, mice
Protocol: as §2

[4] = biological target: P-gp (Homo sapiens, UniProt P08183); conditions: concomitant use with digoxin; cited from earlier work
[5] = biological target: T1, HER2; assay: HER2 total protein levels by western blotting (WES system) after tucatinib treatment; assay type: cell-based; conditions: BT-474, SK-BR-3, HCC-1419, UACC-893; tucatinib 30 nM or 100 nM; 24 hours and 48 hours
Protocol: as §1
HER2 protein levels were determined for BT-474, SK-BR-3, HCC-1419, and UACC-893 after treatment with tucatinib at either 30 nM or 100 nM doses, for the duration of 24 hours and 48 hours. Protein lysates were generated from cells harvested at each timepoint. HER2 total protein levels were determined by western blotting using a WES™ system, and normalized against GAPDH levels as a loading control. In all four cell lines tested, HER2 total protein levels increased after treatment with tucatinib.

[6] = tested on: HER2+ mBC; assay: Phase 1b open-label dose-escalation study ONT-380-004 of tucatinib combined with T-DM1; assay type: in vivo, human; conditions: PO BID in combination with T-DM1 3.6 mg/kg every 21 days
Protocol: For subjects in the CNS disease-expansion cohorts, trastuzumab and taxane (together or separately) might have been given at any time prior to study enrollment as part of neoadjuvant therapy, adjuvant therapy, or therapy for metastatic disease.
Fifty-seven T-DM1-naive subjects were treated (Borges 2018). […] In these 50 subjects, the median PFS was 8.2 months (95% CI: 4.8, 10.3); the clinical benefit rate (CBR; subjects with best response of complete response (CR) or partial response [PR], or stable disease [SD] for >6 months) among 48 evaluable subjects was 58% (28 subjects). Thirty-four of 50 subjects (68%) treated with the MTD had measurable disease and were evaluable for response with an objective response rate (ORR) of 47% (1 subject with CR, 15 subjects with PR 14 subjects with SD, and 4 subjects with disease progression). Among the subjects whose disease responded to treatment, the median duration of response (DOR) was 6.9 months (95% CI: 2.8, 19.8).

[7] = tested on: BT-474 breast cancer cells; assay: BT-474 cell line-derived (CDX) subcutaneous xenograft model; assay type: in vivo, mice; conditions: BT-474 CDX; tucatinib 50 mg/kg orally twice daily; T-DM1 10 mg/kg IV single dose; nine animals per arm
Protocol: Cell line-derived (CDX) BT-474 breast cancer cells were implanted subcutaneously into the flanks of female immunocompromised mice. […] Each study arm was comprised of nine animals each. Tumor volume was monitored until the designated endpoint of the study. P-values were determined by t-test analysis comparing the tucatinib/T-DM1 combination to the closest single agent arm (ref brackets). In this model, the combination of tucatinib and T-DM1 produced three complete responses and six partial responses, while tucatinib alone generated eight partial responses, and T-DM1 alone generated nine partial responses.

[8] = biological target: T1, HER2; assay: HER2 internalization assays with fluorescently-labeled trastuzumab (AF488, QF) in SK-BR-3 cells; assay type: cell-based; conditions: tucatinib 100 nM
Protocol: To probe the dynamics of HER2 at the cell surface upon binding to antibody therapeutics, HER2 internalization assays were conducted over the course of 72 hours. […] FIGS. 10A and 10B show the dynamics of HER2 at the cell surface upon binding to antibody therapeutics.
To probe the dynamics of HER2 at the cell surface upon binding to antibody therapeutics in the presence or absence of tucatinib (100 nM), SK-BR-3 cells were incubated with fluorescently-labeled trastuzumab to mark HER2 at the cell surface as shown in FIGS. 10A and 10B. Excess antibody was washed out. Cells were imaged at time points spanning 72 hours to observe internalization of surface-bound antibody. Concurrent experiments were conducted with trastuzumab labeled with QF […], a quenched fluor which fluoresces upon lysosomal processing and can serve as a proxy for antibody catabolism.

[9] = CTG-0708 PDX, tucatinib 50 mg/kg orally twice daily, T-DM1 10 mg/kg IV single dose, eight animals per arm
[10] = CTG-0807 PDX, tucatinib 50 mg/kg orally twice daily, T-DM1 10 mg/kg IV single dose, eight animals per arm

T1 sequence (P04626 23-1255): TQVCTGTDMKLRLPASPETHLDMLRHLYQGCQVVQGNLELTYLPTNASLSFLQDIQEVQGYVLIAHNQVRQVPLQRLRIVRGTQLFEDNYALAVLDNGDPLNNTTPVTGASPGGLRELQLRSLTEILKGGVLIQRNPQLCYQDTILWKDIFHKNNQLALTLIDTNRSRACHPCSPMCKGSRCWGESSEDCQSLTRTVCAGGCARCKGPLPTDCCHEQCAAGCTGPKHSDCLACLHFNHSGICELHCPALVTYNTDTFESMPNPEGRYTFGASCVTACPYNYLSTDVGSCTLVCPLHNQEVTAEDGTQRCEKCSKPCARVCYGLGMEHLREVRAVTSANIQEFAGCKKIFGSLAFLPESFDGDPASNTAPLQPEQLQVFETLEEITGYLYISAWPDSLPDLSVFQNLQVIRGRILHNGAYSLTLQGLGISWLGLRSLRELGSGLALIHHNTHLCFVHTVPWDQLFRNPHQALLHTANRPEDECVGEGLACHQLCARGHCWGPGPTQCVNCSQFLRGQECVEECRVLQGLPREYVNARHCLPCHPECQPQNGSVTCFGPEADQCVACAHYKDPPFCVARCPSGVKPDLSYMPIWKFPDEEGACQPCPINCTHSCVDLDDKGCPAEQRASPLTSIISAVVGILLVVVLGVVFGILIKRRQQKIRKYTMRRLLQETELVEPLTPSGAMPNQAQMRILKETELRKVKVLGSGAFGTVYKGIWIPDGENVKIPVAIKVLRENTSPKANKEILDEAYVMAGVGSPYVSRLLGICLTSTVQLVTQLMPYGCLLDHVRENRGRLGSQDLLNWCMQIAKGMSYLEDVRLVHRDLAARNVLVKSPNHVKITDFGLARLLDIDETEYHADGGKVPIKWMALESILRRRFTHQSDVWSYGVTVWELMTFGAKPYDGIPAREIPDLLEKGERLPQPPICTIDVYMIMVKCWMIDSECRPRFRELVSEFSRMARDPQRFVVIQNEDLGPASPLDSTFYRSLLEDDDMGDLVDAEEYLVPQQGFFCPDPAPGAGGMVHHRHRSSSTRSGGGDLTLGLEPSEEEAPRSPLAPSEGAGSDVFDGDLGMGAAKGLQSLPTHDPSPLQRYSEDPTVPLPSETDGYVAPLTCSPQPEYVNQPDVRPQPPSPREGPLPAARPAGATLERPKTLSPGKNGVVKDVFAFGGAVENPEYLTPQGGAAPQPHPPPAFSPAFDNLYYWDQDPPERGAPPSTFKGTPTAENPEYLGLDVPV
Chain of P-gp (P08183 whole entry): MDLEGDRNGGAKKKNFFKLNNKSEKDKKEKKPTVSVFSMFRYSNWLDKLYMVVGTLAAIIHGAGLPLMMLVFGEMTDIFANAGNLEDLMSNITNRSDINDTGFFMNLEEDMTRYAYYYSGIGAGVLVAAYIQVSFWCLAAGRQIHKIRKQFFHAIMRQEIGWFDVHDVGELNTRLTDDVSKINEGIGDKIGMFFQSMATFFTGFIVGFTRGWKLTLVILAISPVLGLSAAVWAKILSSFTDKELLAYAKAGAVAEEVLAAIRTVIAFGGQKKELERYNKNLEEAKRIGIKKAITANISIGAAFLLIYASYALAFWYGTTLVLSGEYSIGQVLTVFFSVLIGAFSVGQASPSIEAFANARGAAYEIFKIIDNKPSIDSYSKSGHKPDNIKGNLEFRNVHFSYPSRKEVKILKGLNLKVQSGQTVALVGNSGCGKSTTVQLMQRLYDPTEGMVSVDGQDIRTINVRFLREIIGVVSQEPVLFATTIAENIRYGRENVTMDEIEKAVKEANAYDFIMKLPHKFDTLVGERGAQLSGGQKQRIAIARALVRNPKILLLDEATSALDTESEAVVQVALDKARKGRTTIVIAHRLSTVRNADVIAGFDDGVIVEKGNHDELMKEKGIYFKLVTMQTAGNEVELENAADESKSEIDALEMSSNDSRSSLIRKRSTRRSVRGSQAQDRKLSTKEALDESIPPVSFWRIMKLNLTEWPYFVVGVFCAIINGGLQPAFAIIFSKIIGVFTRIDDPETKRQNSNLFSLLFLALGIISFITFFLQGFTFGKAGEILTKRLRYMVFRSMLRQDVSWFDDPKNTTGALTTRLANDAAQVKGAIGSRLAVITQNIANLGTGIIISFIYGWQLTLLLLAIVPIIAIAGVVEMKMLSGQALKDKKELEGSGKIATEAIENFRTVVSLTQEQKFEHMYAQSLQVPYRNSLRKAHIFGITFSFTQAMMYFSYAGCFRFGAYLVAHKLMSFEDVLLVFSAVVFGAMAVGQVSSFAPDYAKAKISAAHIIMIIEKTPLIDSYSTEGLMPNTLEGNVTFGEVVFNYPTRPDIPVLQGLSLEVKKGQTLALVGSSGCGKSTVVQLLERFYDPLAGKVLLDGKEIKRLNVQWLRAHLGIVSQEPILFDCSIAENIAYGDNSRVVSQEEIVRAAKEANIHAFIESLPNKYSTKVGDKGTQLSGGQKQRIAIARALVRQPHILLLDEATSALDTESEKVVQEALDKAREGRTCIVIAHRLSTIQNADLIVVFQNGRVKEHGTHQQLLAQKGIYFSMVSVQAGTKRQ

Row | Molecule | HER2 levels at the cell surface [1] | partial responses [2, 9] | tumor growth / tumor control ([2]; T-DM1 resistant PDX model CTG-0708) | partial responses [3, 10] | tumor growth / tumor control ([3]; T-DM1 resistant PDX model CTG-0807) | effect on digoxin concentrations (drug interaction) [4] | HER2 total protein levels (normalized against GAPDH) [5] | maximum-tolerated dose (MTD) of tucatinib [6] | partial responses [7] | dwell time of HER2 at the cell surface ([8]; initial effect) | internalization and lysosomal processing of HER2 bound to trastuzumab ([8]; later timepoints, up to 72 hours) | complete responses [2, 9] | complete responses [3, 10]
1 | Cc1cc(Nc2ncnc3ccc(NC4=NC(C)(C)CO4)cc23)ccc1Oc1ccn2ncnc2c1 [tucatinib] | increased | two | inhibited tumor growth | 6 | inhibited tumor growth | increases digoxin concentrations | increased | 300 mg | eight | increased the dwell time of HER2 at the cell surface | HER2 bound to trastuzumab was internalized and directed towards lysosomes | – | –
2 | ado-trastuzumab emtansine [T-DM1, reference compound] | – | no partial or complete responses | – | no partial or complete responses | – | – | – | – | nine | – | – | no partial or complete responses | no partial or complete responses

From patent publication US20220387618A1, “METHODS OF TREATING HER2 POSITIVE BREAST CANCER WITH TUCATINIB IN COMBINATION WITH AN ANTI-HER2 ANTIBODY-DRUG CONJUGATE” (Seagen Inc., priority 2019, published 2022)
